Measurements published in patent US8664391B2, “Amide compounds as boosters of antivirals” (Janssen R&D Ireland Ltd, priority 2008, dated 2014).
Read-outs that look alike come from different tables or passages of the source.

Assays:
[1] = Cytotoxicity in mock-infected MT4 CMV-EGFP cells; assay type: cell-based; settings: human, pCC50 = -log10(CC50), read-out: Toxicity MT4 pCC50 (converted)
From the text: (§1) Assay 1 &2: Antiviral Activity/Toxicity
Analogously, MT4 cells are engineered with GFP and the constitutional cytomegalovirus (CMV) promotor. This cell line is designated MT4 CMV-EGFP, and can be used for the in vitro evaluation of cytotoxicity of investigational compounds. In this cell line, GFP levels are comparably to those of infected MT4 LTR-EGFP cells. Cytotoxic investigational compounds reduce GFP levels of mock-infected MT4 CMV-EGFP cells.
Effective concentration values such as 50% effective concentration (EC50) can be determined and are usually expressed in μM. An EC50 value is defined as the concentration of test compound that reduces the fluorescence of HIV-infected cells by 50%. The 50% cytotoxic concentration (CC50 in μM) is defined as the concentration of test compound that reduces fluorescence of the mock-infected cells by 50%. The ratio of CC50 to EC50 is defined as the selectivity index (SI) and is an indication of the selectivity of the anti-HIV activity of the inhibitor. The ultimate monitoring of HIV-1 infection and cytotoxicity is done using a scanning microscope. Image analysis allows very sensitive detection of viral infection. Measurements are done before cell necrosis, which usually takes place about five days after infection, in particular measurements are performed three days after infection.
Table 2 lists pEC50 values against the wild-type HIV-1 IIIB strain as well as pCC50 values for a selected number of compounds of the invention. A pEC50 value corresponds to −log10(EC50). A pCC50 value corresponds to −log10(CC50).

CYP3A4 = target: T1, CYP3A4 (Homo sapiens, UniProt P08684); assay: CYP450 inhibition, fluorescent substrate assay, CYP3A4; assay type: biochemical; settings: for inhibition at 10 min, 10 μM: substrate DBF 1 μM, read-out: 3A4-DBF % inh.
T1 construct: host or cells: E. coli
Method: (§2) Assay 4: CYP450 Inhibition […] This fluorescent molecule was measured using a fluorescent plate reader (Victor2 (Wallac) or Fluoroskan (Labsystems)). Compounds inhibiting the enzymatic reaction will result in a decrease of fluorescent signal. CYP P450 enzymes were prepared in house or commercially bought and stored at −80° C. [table] The assay was performed in black 96 well Costar plates. Test compounds were added to a CYP P450 enzyme solution in the presence of an NADPH generating system. After 5 min of preincubation at 37° C., the freshly prepared, phosphate buffered (pH 7.4) substrate solution was added. Known CYP P450 inhibitors were used as positive controls, negative controls were run without CYP P450 enzyme. For final reaction mixture concentrations, see Table 6. […] Then, the reaction was stopped by the addition of 200 μl acetonitrile, and the fluorescent signal was detected. [table] […] Inhibition of TMC114 Metabolisation

CYP2C9 = CYP2C9 (Homo sapiens, UniProt P11712); assay: CYP450 inhibition, fluorescent substrate assay, CYP2C9; assay type: biochemical
Method: as §2

CYP2C19 = target: T2, CYP2C19 (Homo sapiens, UniProt P33261); assay: CYP450 inhibition, fluorescent substrate assay, CYP2C19; assay type: biochemical; settings: substrate CEC 25 μM, read-out: 2C19-CEC % inh.
T2 construct: host or cells: E. coli
Method: as §2

CYP2D6 = target: T3, CYP2D6 (Homo sapiens, UniProt P10635); assay: CYP450 inhibition, fluorescent substrate assay, CYP2D6; assay type: biochemical; settings: substrate AMMC 3 μM, read-out: 2D6-AMMC % inh.
T3 construct: host or cells: E. coli
Method: as §2

CYP1A2 = target: T4, CYP1A2 (Homo sapiens, UniProt P05177); assay: CYP450 inhibition, fluorescent substrate assay, CYP1A2; assay type: biochemical; settings: substrate CEC 5 μM, read-out: 1A2-CEC % inh.
T4 construct: host or cells: E. coli
T4 sequence (P05177 1-516): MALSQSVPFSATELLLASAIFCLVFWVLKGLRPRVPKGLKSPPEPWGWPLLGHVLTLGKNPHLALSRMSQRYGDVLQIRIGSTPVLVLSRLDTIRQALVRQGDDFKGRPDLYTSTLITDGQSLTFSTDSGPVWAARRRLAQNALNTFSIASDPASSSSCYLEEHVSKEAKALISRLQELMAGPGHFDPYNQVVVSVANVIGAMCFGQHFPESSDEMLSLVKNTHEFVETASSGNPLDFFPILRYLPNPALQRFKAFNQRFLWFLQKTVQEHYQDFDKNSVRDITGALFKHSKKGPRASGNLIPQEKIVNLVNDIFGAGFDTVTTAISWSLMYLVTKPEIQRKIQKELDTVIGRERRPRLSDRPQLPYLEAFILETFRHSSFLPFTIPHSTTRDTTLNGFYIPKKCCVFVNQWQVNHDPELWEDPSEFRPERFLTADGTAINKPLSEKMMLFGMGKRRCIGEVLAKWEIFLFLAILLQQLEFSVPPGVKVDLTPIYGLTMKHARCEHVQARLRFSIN
Method: as §2

[2] = system: wild-type HIV-1 IIIB strain; assay: Antiviral activity in MT4 LTR-EGFP cellular assay; assay type: cell-based; settings: read-out: Antiviral Activity IIIB pEC50 (converted)
Method: as §1
The compounds of the present invention were tested for antiviral activity in a cellular assay, which was performed according to the following procedure.
The human T-cell line MT4 is engineered with Green Fluorescent Protein (GFP) and an HIV-specific promoter, HIV-1 long terminal repeat (LTR). This cell line is designated MT4 LTR-EGFP, and can be used for the in vitro evaluation of anti-HIV activity of investigational compounds. In HIV-1 infected cells, the Tat protein is produced which upregulates the LTR promotor and finally leads to stimulation of the GFP reporter production, allowing measuring ongoing HIV-infection fluorometrically.
The ratio of CC50 to EC50 is defined as the selectivity index (SI) and is an indication of the selectivity of the anti-HIV activity of the inhibitor. The ultimate monitoring of HIV-1 infection and cytotoxicity is done using a scanning microscope. Image analysis allows very sensitive detection of viral infection. Measurements are done before cell necrosis, which usually takes place about five days after infection, in particular measurements are performed three days after infection.
A pEC50 value corresponds to −log10(EC50). A pCC50 value corresponds to −log10(CC50).

in vitro = in vitro ADME, human; settings: pH 7.4
From the text: Assay 3: Metabolic Stability of Test Compounds (HLM15′)
Sub-cellular tissue preparations are made according to Gorrod et al. (Xenobiotica, 5, pp. 453-462 (1975)) by centrifugal separation after mechanical homogenization of tissue. Human liver tissue is rinsed in ice-cold 0.1 M Tris-HCl (pH 7.4) buffer to wash excess blood. Tissue is then blotted dry, weighed and chopped coarsely using surgical scissors. The tissue pieces are homogenized in 3 volumes of ice-cold 0.1 M phosphate buffer (pH 7.4) using either a Potter-S (Braun, Italy) equipped with a Teflon pestle or a Sorvall Omni-Mix homogenizer, for 7×10 sec. In both cases, the vessel is kept in/on ice during the homogenization process. Tissue homogenates are centrifuged at 9000×g for 20 min at 4° C. using a Sorvall centrifuge or Beckman Ultracentrifuge. The resulting supernatant can be stored at −80° C. and is designated ‘S9’. The S9 fraction is centrifuged at 100,000×g for 60 min at 4° C. using a Beckman ultracentrifuge. The resulting supernatant is carefully aspirated, aliquoted and designated ‘cytosol’. The pellet is re-suspended in 0.1 M phosphate buffer (pH 7.4) in a final volume of 1 ml per 0.5 g original tissue weight and designated ‘microsomes’. All sub-cellular fractions are aliquoted, immediately frozen in liquid nitrogen and stored at −80° C. until use.
Heat-inactivated (10 min at 95° C.) ‘S9’ or microsomes were used for blank experiments. Reaction mixtures were incubated at 37° C. for 5 min, after which the reaction was started by the addition of 0.8 mM β-NADP. The reaction was incubated for 0 or 15 min. Next, the reaction was stopped by addition of 2 volumes of DMSO (or acetonitrile). Samples were centrifuged (10 min, 900×g) and analyzed by LC-MS.

[3] = E. coli expressed CYP3A4, pH 7.4, probe BFC (150 μM), 10 μM test compound, substrate BFC 150 μM, read-out: 3A4-BFC % inh.
[4] = E. coli expressed CYP3A4, pH 7.4, probe BQ (60 μM), 10 μM test compound, substrate BQ 60 μM, read-out: 3A4-BQ % inh.
[5] = E. coli expressed CYP3A4, pH 7.4, probe DBF (1 μM), 10 μM test compound
[6] = pH 7.4, 10 μM test compound, substrate MFC 200 μM, 30 min, read-out: 2C9-MFC % inh.
[7] = E. coli expressed CYP2C19, pH 7.4, probe CEC (25 μM), 10 μM test compound
[8] = E. coli expressed CYP2D6, pH 7.4, probe AMMC (3 μM), 10 μM test compound
[9] = E. coli expressed CYP1A2, pH 7.4, probe CEC (5 μM), 10 μM test compound
[10] = Human immunodeficiency virus 1, IIIB, 72 h
[11] = human liver microsomes 1 mg/ml, 5 μM test compound, 15 min, 37° C., read-out: % recovery HLM15

T1 sequence (P08684 whole entry): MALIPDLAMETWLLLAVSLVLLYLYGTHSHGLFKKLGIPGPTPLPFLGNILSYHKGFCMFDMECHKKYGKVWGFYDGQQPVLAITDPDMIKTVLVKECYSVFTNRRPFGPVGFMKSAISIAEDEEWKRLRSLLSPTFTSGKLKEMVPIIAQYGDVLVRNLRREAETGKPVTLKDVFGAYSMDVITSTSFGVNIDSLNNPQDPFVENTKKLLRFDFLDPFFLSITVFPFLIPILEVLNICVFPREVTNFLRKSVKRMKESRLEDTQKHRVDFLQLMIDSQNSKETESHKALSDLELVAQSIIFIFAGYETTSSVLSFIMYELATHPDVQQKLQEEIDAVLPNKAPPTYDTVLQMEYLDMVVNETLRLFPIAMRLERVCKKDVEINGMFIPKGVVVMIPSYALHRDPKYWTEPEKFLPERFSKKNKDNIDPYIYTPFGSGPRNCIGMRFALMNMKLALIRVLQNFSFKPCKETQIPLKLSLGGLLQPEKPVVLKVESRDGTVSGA
T2 sequence (P33261 whole entry): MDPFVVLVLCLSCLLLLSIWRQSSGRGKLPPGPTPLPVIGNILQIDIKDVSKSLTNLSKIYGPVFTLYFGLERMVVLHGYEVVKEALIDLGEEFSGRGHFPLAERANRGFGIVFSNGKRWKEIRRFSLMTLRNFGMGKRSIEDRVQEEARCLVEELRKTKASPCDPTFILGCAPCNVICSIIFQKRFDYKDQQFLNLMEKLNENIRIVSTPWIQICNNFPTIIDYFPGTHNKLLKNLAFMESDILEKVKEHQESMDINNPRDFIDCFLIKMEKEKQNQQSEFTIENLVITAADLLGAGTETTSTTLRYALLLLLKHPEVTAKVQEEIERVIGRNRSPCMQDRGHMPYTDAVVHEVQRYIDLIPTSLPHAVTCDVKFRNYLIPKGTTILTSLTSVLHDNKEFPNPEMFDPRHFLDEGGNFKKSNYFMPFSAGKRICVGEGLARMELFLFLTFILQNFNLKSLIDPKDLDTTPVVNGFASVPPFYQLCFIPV
T3 sequence (P10635 whole entry): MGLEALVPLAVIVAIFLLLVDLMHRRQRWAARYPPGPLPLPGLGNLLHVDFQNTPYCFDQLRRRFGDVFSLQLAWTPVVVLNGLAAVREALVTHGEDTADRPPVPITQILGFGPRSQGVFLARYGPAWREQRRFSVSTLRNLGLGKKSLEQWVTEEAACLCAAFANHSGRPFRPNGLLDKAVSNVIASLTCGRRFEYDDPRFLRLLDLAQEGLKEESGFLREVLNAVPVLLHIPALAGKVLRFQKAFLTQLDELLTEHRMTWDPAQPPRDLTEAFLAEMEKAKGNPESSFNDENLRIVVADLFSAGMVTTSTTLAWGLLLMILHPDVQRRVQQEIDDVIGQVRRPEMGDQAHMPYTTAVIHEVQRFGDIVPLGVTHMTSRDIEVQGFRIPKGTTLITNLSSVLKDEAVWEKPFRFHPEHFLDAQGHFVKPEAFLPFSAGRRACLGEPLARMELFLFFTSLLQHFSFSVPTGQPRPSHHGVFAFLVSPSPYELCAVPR
CYP2C9, sequence (P11712 whole entry): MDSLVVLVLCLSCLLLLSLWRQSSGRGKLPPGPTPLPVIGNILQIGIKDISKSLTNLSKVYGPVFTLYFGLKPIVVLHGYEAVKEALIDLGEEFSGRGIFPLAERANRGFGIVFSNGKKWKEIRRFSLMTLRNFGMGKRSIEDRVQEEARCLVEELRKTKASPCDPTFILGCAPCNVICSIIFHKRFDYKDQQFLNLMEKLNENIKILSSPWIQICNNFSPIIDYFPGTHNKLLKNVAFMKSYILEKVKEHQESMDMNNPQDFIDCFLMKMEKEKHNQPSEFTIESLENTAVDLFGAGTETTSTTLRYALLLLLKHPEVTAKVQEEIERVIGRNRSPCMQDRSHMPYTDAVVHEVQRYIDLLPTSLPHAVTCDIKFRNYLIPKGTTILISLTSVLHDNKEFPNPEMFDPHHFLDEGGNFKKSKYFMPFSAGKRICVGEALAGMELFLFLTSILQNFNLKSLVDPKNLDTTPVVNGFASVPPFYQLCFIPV

| SMILES | CC50 at 3 days [1] | inhibition at 30 min, 10 μM (CYP3A4; [3]) | inhibition at 30 min, 10 μM (CYP3A4; [4]) | inhibition at 10 min, 10 μM (CYP3A4; [5]) | inhibition at 30 min, 10 μM (CYP2C9; [6]) | inhibition at 30 min, 10 μM (CYP2C19; [7]) | inhibition at 45 min, 10 μM (CYP2D6; [8]) | inhibition at 15 min, 10 μM (CYP1A2; [9]) | EC50 [2, 10] | recovery at 15 min, 5 μM (in vitro; [11]) | inhibition at 30 min, 10 μM (CYP2C9; pH 7.4) | EC50 ([2]; Human immunodeficiency virus 1, 72 h, wild-type HIV-1 IIIB, MT4 LTR-EGFP cells, three days after infection, pEC50 = -log10(EC50)) | recovery at 15 min, 5 μM (in vitro; human) | inhibition at 30 min, 10 μM (CYP3A4; pH 7.4, 10 μM test compound, substrate BFC 150 μM, read-out: 3A4-BFC % inh.) | inhibition at 30 min, 10 μM (CYP3A4; pH 7.4, 10 μM test compound, substrate BQ 60 μM, read-out: 3A4-BQ % inh.) | inhibition at 10 min, 10 μM (CYP3A4; pH 7.4, 10 μM test compound) | inhibition at 30 min, 10 μM (CYP2C19; pH 7.4, 10 μM test compound) | inhibition at 45 min, 10 μM (CYP2D6; pH 7.4, 10 μM test compound) | inhibition at 15 min, 10 μM (CYP1A2; pH 7.4, 10 μM test compound) |
| --- | --- | --- | --- | --- | --- | --- | --- | --- | --- | --- | --- | --- | --- | --- | --- | --- | --- | --- | --- |
| CC(C)CN(C[C@@H](O)[C@H](Cc1ccccc1)NC(=O)OCc1cncs1)C(=O)c1cccc(Br)c1 [Compound C17] | 36.3 µM | 57% | 81% | 93% | 98% | 87% | 46% | 55% | 41.7 µM | 68% | – | – | – | – | – | – | – | – | – |
| CC(C)CN(C[C@@H](O)[C@H](Cc1ccccc1)NC(=O)OCc1cncs1)C(=O)c1ccc(Br)cc1 [Compound C18] | 41.7 µM | 83% | 84% | 94% | 98% | 93% | 64% | 63% | 38.9 µM | 57% | – | – | – | – | – | – | – | – | – |
| CC(C)CN(C[C@@H](O)[C@H](Cc1ccccc1)NC(=O)OCc1cccnc1)C(=O)c1ccncc1 [Compound C20] | > 100 µM | 88% | 66% | 85% | – | 41% | 13% | 6% | – | – | 63% | > 100 µM | 37% | – | – | – | – | – | – |
| CC(C)CN(C[C@@H](O)[C@H](Cc1ccccc1)NC(=O)OCc1cncs1)C(=O)c1ccco1 [Compound C21] | > 100 µM | – | – | – | 95% | – | – | – | > 100 µM | 62% | – | – | – | 87% | 81% | 95% | 75% | 62% | 43% |
